Test [1] deals with ATF4. Kind of test: ATF4 expression inhibition assay (thapsigargin-stressed HEK293T cells, western blot). The format is cell-based. The note with it: Homo sapiens, HEK-293T; for IC50: 3 h with 100 nM Tg, test compound 1 nM to 1 μM; for inhibition at 0.1 µM: 3 h with 100 nM thapsigargin (Tg) and 100 nM test compound; for inhibition at 0.1 µM / inhibition at 1 µM: Tg alone 0%, untreated 100%; for inhibition at 1 µM: 3 h with 100 nM thapsigargin (Tg) and 1 μM test compound. As to the method:
HEK293T cells were maintained at 37° C. and 5% CO2 in Dulbecco's Modified Eagle's Media (DMEM) supplemented with 10% fetal bovine serum (FBS), 2 mM L-glutamine, 100 U/ml penicillin, and 100 μg/ml streptomycin. […] Cells without treatment or cells treated with Tg alone were used as controls.
After 3 hours of treatment with Tg and the test compound, cells were lysed with SDS-PAGE lysis buffer. Lysates were transferred to 1.5 ml tubes and sonicated for 3 min, and total protein amounts were quantified using BCA Protein Assay Kit (Pierce). Equal amount of proteins were loaded on SDS-PAGE gels. Proteins were transferred onto 0.2 μm PVDF membranes (BioRad) and probed with primary antibodies diluted in Tris-buffered saline supplemented with 0.1% Tween 20 and 3% bovine serum albumin.
ATF4 (11815) antibody was used as primary antibody (Cell Signaling Technologies). A horseradish peroxidase (HRP)-conjugated secondary antibody (Rockland) was employed to detect immune-reactive bands using enhanced chemiluminescence (ECL Western Blotting Substrate, Pierce). Quantification of protein bands was done by densitometry using ImageJ.
Percentages of ATF4 inhibition after induction with Tg in the presence of 100 nM or 1 μM of certain test compounds are shown in Table 2 and FIG. 1. Percentage of ATF4 inhibition was calculated as the percent reduction normalized to Tg treatment (0% inhibition) and untreated cells (100% inhibition). Also shown in Table 2 is the calculated IC50 for the test compounds. […] Accordingly, inhibition of ATF4 expression as a result of the test compound indicates suppression of the ISR pathway.

Test [2] has as its system CHO cells. Put plainly: Protein translation assay (puromycin incorporation in CHO cells, unstressed or Tg-stressed). The format is cell-based, Chinese hamster. The note with it: for activity at 0.1 µM / activity at 1 µM: Cricetulus griseus, media alone 100%; for activity at 0.1 µM: read-out: % Recovery of protein expression (100 nM test compound). On the procedure: CHO cells were maintained at 37° C. and 5% CO2 in DMEM supplemented with 10% fetal bovine serum (FBS), 2 mM L-glutamine, 100 U/ml penicillin, and 100 μg/ml streptomycin. After reaching 80% of confluence, cells were detached and seeded on 6 well plates in complete media, allowed to recover overnight and treated for 2 hours with 1 μM of the test compound (to assess protein synthesis levels in unstressed condition), or for 1 hour with 100 nM and 1 μM of the test compound and then co-treated with 300 nM Tg and 100 nM and 1 μM of the test compound (to assess the recovery of protein synthesis in a stressed condition). Cells treated with Tg alone were used as controls.
After the 2 hours treatments, media were replaced by adding 10 μg/ml puromycin (Sigma Aldrich) in complete media for 30 min. Media were removed and cells were lysed with SDS-PAGE lysis buffer. Lysates were transferred to 1.5 ml tubes and sonicated for 3 minutes and total protein amount were quantified using BCA Protein Assay Kit (Pierce). Equal amount of protein (30 μg) was loaded on SDS-PAGE gels. Proteins were transferred onto 0.2 μm PVDF membranes (BioRad) and probed with primary antibodies diluted in Tris-buffered saline supplemented with 0.1% Tween 20 and 3% bovine serum albumin.
Puromycin (12D10) antibody was used as primary antibody (Merck Millipore). A HRP-conjugated secondary antibody (Rockland) was employed to detect immune-reactive bands using enhanced chemiluminescence (ECL Western Blotting Substrate, Pierce). Quantification of protein bands was done by densitometry using ImageJ.
Percent increase of protein synthesis in unstressed cells (without Tg treatment) in the presence of media alone or certain test compounds is shown in Table 3 and FIG. 2. The percentage levels were normalized to the media alone condition, which correspond to 100% protein synthesis.
Percent recovery of protein synthesis in stressed cells (with Tg treatment) due to the test compounds at 100 nM or 1 μM is shown in FIGS. 3A and 3B, respectively, and in Table 3. The levels were normalized to the media alone and to Tg alone conditions, which correspond to 100% and 0% respectively.

Setting [3] is: CHO cells stressed with 300 nM Tg, Tg alone 0%.
Setting [4] is: CHO cells stressed with 300 nM Tg, Tg alone 0%, read-out: % Recovery of protein expression (1 μM test compound).
Setting [5] is: unstressed CHO cells, 2 h, read-out: % Protein expression relative to untreated (1 μM test compound).

This is an account of results in US11230542B2, “Inhibitors of integrated stress response pathway” (Praxis Biotech LLC, priority 2017, dated 2022).

By IC50 is commonly meant the concentration needed to halve the response being measured. Low readings indicate inhibition by little substance, high ones a need for much substance. The term inhibition denotes the drop in the measured response relative to a control, in per cent. Higher therefore signals a strong effect.

Each structure is given as a SMILES string. Like-named read-outs stand apart in the source and are kept apart here.

In test [1], `O=C(COc1ccc(Cl)cc1)N[C@H]1CC[C@H](NCC(O)COc2ccc(Cl)cc2)CC1` (stereo partly drawn) [Compound 1, trans-2-(4-chlorophenoxy)-N-(4-((3-(4-chlorophenoxy)-2-hydroxypropyl)amino)cyclohexyl)acetamide] yielded an IC50 of 353 nM, an inhibition at 0.1 µM of 0% and an inhibition at 1 µM of 71%. Also, in test [2] (setting [3]), the activity at 0.1 µM amounted to 63.8%. For the same molecule, in test [2] (setting [4]), the activity at 1 µM was 160%. For the same molecule, the activity at 1 µM in test [2] (setting [5]) was determined as 152%.
In test [1], `O=C(COc1ccc(Cl)c(F)c1)NC1CCN(CCCOc2ccc(Cl)c(F)c2)CC1` [Compound 28, 2-(4-chloro-3-fluorophenoxy)-N-(1-(3-(4-chloro-3-fluorophenoxy)propyl)piperidin-4-yl)acetamide] yielded a half-maximal inhibitory concentration (IC50) of 25.8 nM, an inhibition at 0.1 µM of 88% and an inhibition at 1 µM of 97%. Also, the activity at 0.1 µM in test [2] (setting [3]) came to 38%. Moreover, in test [2] (setting [4]), the activity at 1 µM amounted to 170%. In test [2] (setting [5]), the activity at 1 µM stood at 99.3%.
Turning to `O=C(COc1ccc(Cl)c(F)c1)N[C@H]1CC[C@H](NC[C@@H](O)COc2ccc(Cl)c(F)c2)CC1` (single isomer, unassigned) [Compound 6, (+)-2-(4-chloro-3-fluorophenoxy)-N-(4-((3-(4-chloro-3-fluorophenoxy)-2-hydroxypropyl)amino)cyclohexyl)acetamide], in test [1], half-maximal inhibition (IC50) was put at 82.8 nM, 0.1 µM produced 52% inhibition and 1 µM produced 83% inhibition. In test [2] (setting [3]), the activity at 0.1 µM is 60.2%. Also, the activity at 1 µM in test [2] (setting [4]) is 197%. Besides, in test [2] (setting [5]), the activity at 1 µM was determined as 195%.
In test [1], `O=C(NC1CCN(CCCOc2ccc(Cl)c(F)c2)CC1)c1ccc2cc(Cl)ccc2n1` [Compound 146, 6-chloro-N-(1-(3-(4-chloro-3-fluorophenoxy)propyl)piperidin-4-yl)quinoline-2-carboxamide] displayed an IC50 of 49.9 nM, an inhibition at 0.1 µM of 88% and an inhibition at 1 µM of 100%. The activity at 0.1 µM in test [2] (setting [3]) turned out to be 43.4%. Also, in test [2] (setting [4]), the activity at 1 µM is 265%. Moreover, the activity at 1 µM in test [2] (setting [5]) was 246%.
In test [1], `O=C(NC1CCN(C[C@@H](O)COc2ccc(Cl)c(F)c2)CC1)c1ccc2cc(Cl)ccc2n1` (single isomer, unassigned) [Compound 153, (−)-6-chloro-N-(1-(3-(4-chloro-3-fluorophenoxy)-2-hydroxypropyl)piperidin-4-yl)quinoline-2-carboxamide] gave an inhibition at 0.1 µM of 0% and an inhibition at 1 µM of 0%. Further, the activity at 0.1 µM in test [2] (setting [3]) stood at 51.5%. Moreover, in test [2] (setting [4]), the activity at 1 µM came to 236%. Further, the activity at 1 µM in test [2] (setting [5]) was 323%. In addition, in test [2] (summary of Table 3), the protein translation result is given as “increased protein translation”. Also, the “protein synthesis in a cell versus ATF4 translation” value in test [2] (under ISR-stressed or non-ISR stressed conditions) was “increase protein synthesis in a cell without full inhibition of ATF4 translation”.
For the molecule `O=C(COc1ccc(Cl)c(F)c1)N[C@H]1CC[C@H](NC(=O)c2ccc3cc(Cl)ccc3c2)CC1` [Compound 145, trans-6-chloro-N-(4-(2-(4-chloro-3-fluorophenoxy)acetamido)cyclohexyl)-2-naphthamide], in test [1], the IC50 amounted to 17.1 nM, the inhibition at 0.1 µM worked out at 97% and the inhibition at 1 µM turned out to be 97%. The activity at 0.1 µM in test [2] (setting [3]) came to 22.6%. In addition, the activity at 1 µM in test [2] (setting [4]) stood at 40.6%. In addition, in test [2] (setting [5]), the activity at 1 µM was 95.4%.
With `O=C(NC1CCN(CC(O)COc2ccc(Cl)c(F)c2)CC1)c1cc2cc(Cl)ccc2o1` (stereo not shown) [Compound 29, 5-chloro-N-(1-(3-(4-chloro-3-fluorophenoxy)-2-hydroxypropyl)piperidin-4-yl)benzofuran-2-carboxamide], in test [1], the half-maximal inhibitory concentration (IC50) was 51.8 nM, the inhibition at 0.1 µM came to 87% and the inhibition at 1 µM stood at 95%. Moreover, the activity at 0.1 µM in test [2] (setting [3]) came to 48.4%. The activity at 1 µM in test [2] (setting [4]) came out at 267%. In test [2] (setting [5]), the activity at 1 µM came to 186%.
In test [1], `O=C(N[C@H]1CC[C@H](NCC(O)COc2ccc(Cl)c(F)c2)CC1)c1cc2cc(Cl)ccc2o1` (stereo partly drawn) [Compound 147, trans-5-chloro-N-(4-((3-(4-chloro-3-fluorophenoxy)-2-hydroxypropyl)amino)cyclohexyl)benzofuran-2-carboxamide] gave a concentration for half-maximal inhibition (IC50) of 33.1 nM, an inhibition at 0.1 µM of 95% and an inhibition at 1 µM of 100%. For the same molecule, the activity at 0.1 µM in test [2] (setting [3]) stood at 75.2%. The activity at 1 µM in test [2] (setting [4]) worked out at 262%. Besides, the activity at 1 µM in test [2] (setting [5]) is 190%.
In turn, `O=C(N[C@H]1CC[C@H](NCCOc2ccc(Cl)c(F)c2)CC1)c1ccc2cc(Cl)ccc2n1` [Compound 31, trans-6-chloro-N-(4-((2-(4-chloro-3-fluorophenoxy)ethyl)amino)cyclohexyl)quinoline-2-carboxamide] gave an inhibition at 0.1 µM in test [1] of 41%. In test [1], this molecule showed an inhibition at 1 µM of 93%. In test [2] (setting [3]), the activity at 0.1 µM worked out at 25%. The activity at 1 µM worked out at 288% in test [2] (setting [4]) and 243% in test [2] (setting [5]).
In test [1], `O=C(N[C@H]1CC[C@H](NCC(O)COc2ccc(Cl)c(F)c2)CC1)c1cc2cc(Cl)ccc2o1` (single isomer, unassigned; (-)) [Compound 155, (−)-trans-5-chloro-N-(4-((3-(4-chloro-3-fluorophenoxy)-2-hydroxypropyl)amino)cyclohexyl)benzofuran-2-carboxamide] registered an inhibition at 0.1 µM of 60% and an inhibition at 1 µM of 75%. For the same molecule, the activity at 0.1 µM in test [2] (setting [3]) was determined as 68.5%. Further, in test [2] (setting [4]), the activity at 1 µM was determined as 190%. In test [2] (setting [5]), the activity at 1 µM stood at 263%.
With `O=C(NC1CCN(CC(O)COc2ccc(Cl)c(F)c2)CC1)C1Cc2cc(Cl)ccc2O1` (stereo not shown) [Compound 20, 5-chloro-N-(1-(3-(4-chloro-3-fluorophenoxy)-2-hydroxypropyl)piperidin-4-yl)-2,3-dihydrobenzofuran-2-carboxamide], in test [1], the inhibition at 0.1 µM turned out to be 14% and the inhibition at 1 µM came out at 64%. The activity at 0.1 µM in test [2] (setting [3]) was determined as 38.6%. In test [2] (setting [4]), the activity at 1 µM is 93.9%.
On the same counts, the results for `O=C(COc1ccc(Cl)c(F)c1)N[C@H]1CC[C@H](NC(=O)C2Cc3cc(Cl)ccc3O2)CC1` (stereo partly drawn) [Compound 19, trans-5-chloro-N-(4-(2-(4-chloro-3-fluorophenoxy)acetamido)cyclohexyl)-2,3-dihydrobenzofuran-2-carboxamide] are 94%, 100%, 14.1% and 116%.
In test [1], `O=C(NC1CCN(CC(O)COc2ccc(Cl)c(F)c2)CC1)c1ccc2cc(Cl)ccc2n1` (stereo not shown) [Compound 22, 6-chloro-N-(1-(3-(4-chloro-3-fluorophenoxy)-2-hydroxypropyl)piperidin-4-yl)quinoline-2-carboxamide] gave an IC50 of 103 nM, an inhibition at 0.1 µM of 21% and an inhibition at 1 µM of 81%. Besides, the activity at 0.1 µM in test [2] (setting [3]) was found to be 67.3%. Besides, the activity at 1 µM in test [2] (setting [4]) worked out at 264%. For the same molecule, the activity at 1 µM in test [2] (setting [5]) was 170%.
